Measurements published in ChEMBL document CHEMBL5308504, “Tm Shift (DSF) assay results for EUbOPEN Chemogenomics Library” (2023).
“And” between values parts separate entries of the source, which are not always exact repeats. Identical values can stand only once.

Tests used:
Peregrin (Homo sapiens) = molecular target: T1, Peregrin (Homo sapiens) (UniProt P55201); details: Compound concentration 20.0 uM, Protein concentration 2.0 uM, Result type QC Liability
T1 sequence (whole entry): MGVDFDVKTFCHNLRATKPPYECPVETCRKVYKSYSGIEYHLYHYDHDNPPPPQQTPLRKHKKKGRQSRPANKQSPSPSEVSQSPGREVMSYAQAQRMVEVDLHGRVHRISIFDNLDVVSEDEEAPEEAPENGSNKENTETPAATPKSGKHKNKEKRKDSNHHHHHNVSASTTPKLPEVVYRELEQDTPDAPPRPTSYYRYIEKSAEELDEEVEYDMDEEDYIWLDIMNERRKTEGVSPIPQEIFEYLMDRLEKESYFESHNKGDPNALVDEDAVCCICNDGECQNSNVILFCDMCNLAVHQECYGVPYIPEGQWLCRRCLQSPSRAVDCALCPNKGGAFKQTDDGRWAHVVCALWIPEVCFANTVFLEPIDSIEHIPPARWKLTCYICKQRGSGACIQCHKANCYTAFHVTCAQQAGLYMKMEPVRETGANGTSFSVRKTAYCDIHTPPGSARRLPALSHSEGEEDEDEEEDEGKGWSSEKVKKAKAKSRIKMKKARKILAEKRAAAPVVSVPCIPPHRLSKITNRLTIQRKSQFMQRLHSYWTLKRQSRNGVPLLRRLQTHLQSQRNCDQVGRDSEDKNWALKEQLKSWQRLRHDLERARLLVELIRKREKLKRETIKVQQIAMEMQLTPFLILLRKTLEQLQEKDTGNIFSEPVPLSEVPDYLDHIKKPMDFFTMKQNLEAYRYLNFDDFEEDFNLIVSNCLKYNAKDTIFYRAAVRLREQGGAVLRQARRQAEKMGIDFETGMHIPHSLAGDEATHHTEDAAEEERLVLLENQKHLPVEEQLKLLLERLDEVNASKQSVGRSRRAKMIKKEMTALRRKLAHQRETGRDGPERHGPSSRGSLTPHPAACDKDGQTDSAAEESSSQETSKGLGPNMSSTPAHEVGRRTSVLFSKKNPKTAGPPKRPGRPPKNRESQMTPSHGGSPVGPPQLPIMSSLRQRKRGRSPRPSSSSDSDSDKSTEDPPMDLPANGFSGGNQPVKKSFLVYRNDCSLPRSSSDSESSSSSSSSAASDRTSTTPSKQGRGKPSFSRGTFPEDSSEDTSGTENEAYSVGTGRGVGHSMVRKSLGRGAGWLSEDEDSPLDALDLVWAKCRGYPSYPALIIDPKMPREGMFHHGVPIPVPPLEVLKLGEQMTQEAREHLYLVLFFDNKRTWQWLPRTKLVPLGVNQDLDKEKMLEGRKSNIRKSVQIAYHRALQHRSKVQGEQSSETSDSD

[1] = molecular target: Fibroblast growth factor receptor 3 (Homo sapiens) (UniProt P22607); details: Compound concentration 20.0 uM, Protein concentration 2.0 uM, Result type QC Liability
Sequence of Fibroblast growth factor receptor 3 (Homo sapiens) (P22607 23-806 limits assumed): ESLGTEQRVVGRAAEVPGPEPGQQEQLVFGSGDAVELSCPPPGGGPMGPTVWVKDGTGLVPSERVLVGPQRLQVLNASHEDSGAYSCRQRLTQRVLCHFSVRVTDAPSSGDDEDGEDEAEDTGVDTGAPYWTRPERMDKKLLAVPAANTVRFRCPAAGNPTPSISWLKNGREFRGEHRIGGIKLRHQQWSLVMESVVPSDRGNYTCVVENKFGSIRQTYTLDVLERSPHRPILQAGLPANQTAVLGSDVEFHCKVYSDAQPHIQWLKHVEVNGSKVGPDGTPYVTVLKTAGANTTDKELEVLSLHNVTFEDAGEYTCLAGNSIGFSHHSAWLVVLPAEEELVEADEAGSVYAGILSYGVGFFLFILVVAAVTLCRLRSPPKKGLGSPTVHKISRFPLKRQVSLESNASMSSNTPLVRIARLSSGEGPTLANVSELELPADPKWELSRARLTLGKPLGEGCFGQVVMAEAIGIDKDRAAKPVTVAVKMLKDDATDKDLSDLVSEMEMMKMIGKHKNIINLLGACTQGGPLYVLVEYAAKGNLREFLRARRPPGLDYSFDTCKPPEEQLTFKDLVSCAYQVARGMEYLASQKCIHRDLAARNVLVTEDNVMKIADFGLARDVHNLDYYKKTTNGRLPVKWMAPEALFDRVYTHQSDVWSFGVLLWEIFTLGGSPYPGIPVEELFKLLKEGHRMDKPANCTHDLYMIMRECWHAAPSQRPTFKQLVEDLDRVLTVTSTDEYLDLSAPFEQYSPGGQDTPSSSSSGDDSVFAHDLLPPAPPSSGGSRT
Description: Thermal Shift Assay. Domain: start/stop: P449-E759

Row | Compound | ΔTm (Peregrin (Homo sapiens)) | ΔTm [1]
1 | CCCCC[C@@](C)(O)/C=C/[C@H]1C(=O)CC(O)C1C/C=C\CCCC(=O)O (some centres not stated) | -1.97 °C | 0.37 °C
2 | CN(C)CCCNc1ccnc(Nc2cccc(Cl)c2)n1 | -1.77 °C | 1.43 °C
3 | O=C(Nc1ccc(-n2nc(-c3cccnc3)cc2C(F)(F)F)cn1)c1ccc(-c2ccccc2)c(F)c1 | -2.22 °C | 0.42 °C
4 | Nc1ncnc2[nH]c(-c3ccccc3)nc12 | -0.39 °C | 1.78 °C
5 | Nc1ncc2c(n1)-c1c([nH]c3ccc(C4CC4)cc13)CCCC2 | -1.74 °C | 0.81 °C
6 | O=C(O)CCCN1CCC[C@H]1COc1ccc(Oc2ccc(Cl)cc2)cc1 | -3.24 °C | 0.41 °C
7 | COc1cc2c(NC3CCN(C(C)C)CC3)nc(C3CCCCC3)nc2cc1OCCCN1CCCC1 | -0.55 °C | 0.95 °C
8 | COCc1c(-c2cc3cc(C)cc(OC)c3s2)c2c(N)ncnn2c1CN[C@@H]1CCNC1=O | -2.51 °C | 6.99 °C
9 | CN1CCCN(C(=O)c2cccc(-c3ccc(/C=C4/C(=O)Nc5ccc(Cl)cc54)o3)c2)CC1 | -2.53 °C | 2.18 °C
10 | COc1ccc(S(=O)(=O)N2CCOCC2)cc1Nc1ccc2c(n1)N(C1CCN(C)CC1)[C@H](C)C(=O)N2C | 1.52 °C | 0.38 °C
11 | CCCCC/C=C/C=C1/C(=O)C=C[C@@H]1C/C=C\CCCC(=O)O | -3.72 °C | 0.72 °C
12 | CC1CNCCc2c1nc1ccnn1c2N1CC(C(=O)N2CCC(C)(C)C2)C1 (configuration not stated) | -1.64 °C | 0.56 °C
13 | Cc1cc(-c2ccnc(Nc3cnn(C)c3)n2)ccc1CNC(=O)N1CC(OC(C)C)C1 | -1.39 °C | 2.34 °C
14 | CC[C@H](NC(=O)[C@H](C)NC)C(=O)N1C[C@@H](O)C[C@H]1Cc1c(-c2[nH]c3cc(F)ccc3c2C[C@@H]2C[C@H](O)CN2C(=O)[C@H](CC)NC(=O)[C@H](C)NC)[nH]c2cc(F)ccc12 | -1.75 °C | 0.75 °C
15 | CNc1nc(-c2cc(C(=O)N3CCN(Cc4ccc(Cl)cc4)CC3)c(Cl)cn2)cs1 | -1.62 °C | 0.37 °C
16 | CCn1c(CNC(=O)c2nc(Cl)cnc2N)[n+](CC)c2ccc(C(=O)N(C)CCN(C)C)cc21 | -1.87 °C | 0.5 °C
17 | COc1cc(C)c(S(=O)(=O)N(C)CCC(=O)N[C@H]2CC[C@@H](N3CCC4CN(C)CC4C3)CC2)c(C)c1 (some centres not stated) | -3.59 °C | 1.1 °C
18 | CN(C)CCCN1c2ccccc2Sc2ccc(Cl)cc21 | -1.01 °C | 0.65 °C
19 | CC(=O)Nc1c(F)cc(C(=O)N[C@H]2CC[C@H](O)CC2)cc1O[C@@H](C)c1ccccc1 | -0.36 °C | 0.45 °C
20 | CC(=O)N1CCC(c2ccc(C(=O)NC3=NCCN3)cc2C(F)(F)F)CC1 | -1.55 °C | 0.6 °C
21 | C[C@H](CCC(=O)O)[C@H]1CC[C@H]2[C@@H]3CC[C@@H]4C[C@H](O)CC[C@]4(C)[C@H]3CC[C@]12C | -3.84 °C | -0.33 °C

Row | Compound | ΔTm (Peregrin (Homo sapiens)) | ΔTm [1]
22 | O=C(O)Cc1ccc(CCNS(=O)(=O)c2ccc(Cl)cc2)cc1 | -2.91 °C | 0.43 °C
23 | CCN(CC)CCO[C@H]1CC[C@@]2(C)C(=CC[C@@H]3[C@@H]2CC[C@]2(C)C(=O)CC[C@@H]32)C1 | -0.77 °C | 0.44 °C
24 | O=C(NCCN1CCC2(CC1)C(=O)NCN2c1cccc(F)c1)c1ccc2ccccc2c1 | -3.2 °C | 0.36 °C
25 | CN[C@@H]1CC[C@@H](c2ccc(Cl)c(Cl)c2)c2ccccc21 | -1.62 °C | 0.61 °C
26 | N#CC[C@H](C1CCCC1)n1cc(-c2ncnc3[nH]ccc23)cn1 | 0.48 °C | 3.43 °C
27 | CCS(=O)(=O)c1cc2cc(C[C@](O)(CC(C)(C)c3ccc(F)cc3C(N)=O)C(F)(F)F)[nH]c2cn1 | -1.64 °C | 0.43 °C
28 | Cc1c(CN2CCC3(CC2)CN(c2ncnc4sc(CC(F)(F)F)cc24)C3)ccc2c1cc(C#N)n2CC(N)=O | -1.41 °C | 0.67 °C
29 | COc1cc(C(=O)NCCOCCOCCOCCC(=O)Nc2cccc3c2C(=O)N(C2CCC(=O)NC2=O)C3=O)ccc1Nc1ncc(C(F)(F)F)c(Oc2cccc3c2C(=O)CC3)n1 (configuration not stated) | -2.32 °C | -3.01 °C
30 | N#Cc1ccc(C#CC[C@@H](C#N)NC(=O)[C@@H]2CCCCN2)cc1F | -2.06 °C | 0.43 °C
31 | N[C@@H]1CCCN(c2c(/C=C3\SC(=O)NC3=O)cccc2-c2ccccc2)C1 | -2.04 °C | 0.95 °C
32 | CSc1nc2c(c(=O)n(C)c(=O)n2C)n1C | -2.2 °C | 0.45 °C
33 | COc1ccc2c(O[C@@H]3C[C@H]4C(=O)N[C@]5(C(=O)NS(=O)(=O)C6(C)CC6)CC5/C=C\CCCCC[C@H](NC(=O)c5ccn(C)n5)C(=O)N4C3)cc(OC(C)C)nc2c1C (some centres not stated) | -0.57 °C | 0.93 °C
34 | CC(C)(C)OC(=O)CN(Cc1ccc(Cl)cc1)Cc1ccc([N+](=O)[O-])s1 | -0.13 °C | 0.88 °C
35 | O=C(CNC(=O)c1ccc(-c2ccccc2)cc1)NC1CCCc2ccccc21 (configuration not stated) | -4.59 °C | 0.59 °C
36 | CCc1nc(C2CCC2)n2nc(-c3ccccc3)[nH]c(=O)c12 | -2.47 °C | 0.69 °C
37 | Cc1ncsc1-c1ccc(CNC(=O)[C@@H]2C[C@@H](O)CN2C(=O)[C@@H](NC(=O)C2(F)CC2)C(C)(C)C)c(OCCOc2ccc(CN3CCN(c4cc(-c5ccccc5O)nnc4N)CC3)cc2)c1 | 5.55 °C | -0.75 °C
38 | O=C(CCCCCCc1ccccc1)c1ncc(-c2ccccn2)o1 | -3.08 °C | 0.46 °C
39 | O=C(Nc1cccc(Nc2nccc(Nc3cccc(C(F)(F)F)c3)n2)c1)C1CC1 | 0.79 °C | 3.3 °C
40 | CCN(CC)C/C=C/C(=O)Nc1cc2c(Nc3ccc(F)c(Cl)c3)ncnc2cc1OCC1CC1 | -0.42 °C | 1.12 °C
41 | CCO[C@@H](Cc1ccc(OCCc2ccc(OS(C)(=O)=O)cc2)cc1)C(=O)O | -1.83 °C | 0.52 °C
42 | CC1(C)Cc2nc(C3CCCC3)c([C@@H](F)c3ccc(C(F)(F)F)cc3)c(C3CCCCC3)c2[C@@H](O)C1 | -1.29 °C | 1.5 °C

Row | Compound | ΔTm (Peregrin (Homo sapiens)) | ΔTm [1]
43 | C=CC(=O)Nc1ccc(C(=O)Nc2[nH]nc3c2CN(C(=O)N[C@H](CN(C)C)c2ccccc2)C3(C)C)cc1 | -0.82 °C | 7.32 °C
44 | CN(C)c1ncc2cc(-c3ccc(-c4ncccc4F)cc3Cl)c(=O)n(C[C@H]3OC[C@H](N)CO3)c2n1 | -1.55 °C | -0.14 °C
45 | O=C(CCSCc1ccco1)NNC(=O)N1Cc2ccccc2Oc2ccc(Cl)cc21 | -3.17 °C | 0.24 °C
46 | CCC(=O)N[C@@H]1CC[C@H](C(=O)N(C)c2ccc(-c3nc4ccccc4o3)cc2)C1 | -1.58 °C | 0.71 °C
47 | COc1cc(O)c(C(CC(=O)N2C[C@H](C)C[C@H](C)C2)c2ccc3c(c2)OCO3)c(OC)c1 (some centres not stated) | 1.95 °C | 0.97 °C
48 | CC[C@H](CO)Nc1nc(Nc2cccc(-c3ccccn3)c2)c2ncn(C(C)C)c2n1 | -2.18 °C | 2.78 °C
49 | Cn1cnc(Cn2ccc3ccc(CNCc4[nH]c5ccccc5c4[C@H]4NC(=O)c5ccc(O)cc54)cc32)c1 | -2.61 °C | 0.57 °C
50 | CCN(C)S(=O)(=O)Nc1cccc(-c2ccc3c(NC(=O)C4CC4)n[nH]c3c2)c1 | -0.56 °C | 2.38 °C
51 | Cc1nccc(COC(=O)N2C[C@@H]3[C@@H](CNC(=O)c4ccc5[nH]nnc5c4)[C@@H]3C2)n1 | -2.37 °C | 0.43 °C
52 | CCCN1CCC(C#N)(NC(=O)[C@H](CC(C)(C)C)NC(=O)N2CCOCC2)CC1 | -2.18 °C | 0.37 °C
53 | O=C(O)c1cc(-c2ccccc2)ccc1O | -0.36 °C | 0.62 °C
54 | C[C@@H]1OCC2(CCN(c3cnc(Sc4ccnc(N)c4Cl)c(N)n3)CC2)[C@@H]1N | -1.53 °C | 0.48 °C
55 | c1ccc(C2CCN(c3cnc4c(N5CCOCC5)nccn34)CC2)cc1 | -0.86 °C | 0.73 °C
56 | O=C1CCCN1CCNc1nc(Nc2ccc(Cl)c(Cl)c2)ncc1C(F)(F)F | -1.78 °C | 4.63 °C
57 | O=C(Nc1ccccc1C(=O)O)c1cc(S(=O)(=O)c2ccccc2)ccc1Cl | -3.6 °C | 0.83 °C
58 | Cc1nnc2n1-c1sc3c(c1C(c1ccccc1Cl)=NC2)C[C@@H](C(=O)N1CCOCC1)C3 | -1.96 °C | 0.58 °C
59 | CCNC(=O)c1ccc2c(c1)NC(=O)/C2=C(\Nc1ccc(CN(C)C)cc1)c1ccccc1 | -2.4 °C and -1.23 °C | 1.15 °C and 1.47 °C
60 | COc1cc(-c2cc([C@H](O)C3CC3)n3ncnc(N)c23)ccc1CO | -2.32 °C | 1.71 °C
61 | O=C(N[C@H](Cc1ccccc1)C(=O)O)c1cccc(OCc2cccnc2)c1 | -2.18 °C | 0.53 °C
